According to patent US6169181A, “Compounds useful to treat retroviral infections” (Pharmacia & Upjohn Company, priority 1998, dated 2001):
Where “and” joins values, the source holds several entries; their conditions need not be identical. Equal values may be shown once. Where a name gives a salt, the structure may show the parent alone. Read-outs that look alike come from different tables or passages of the source.

What was measured:
HIV-1 protease [1] = molecular target: T1, HIV-1 protease (Human immunodeficiency virus type 1 group M subtype B, UniProt P04585); test: biochemical; settings: for inhibition at 0.123 µM / inhibition at 0.37 µM / inhibition at 1.1 µM / inhibition at 3.3 µM / inhibition at 10 µM / inhibition at 30 µM: read-out: Protease % Inhib
Procedure, shortened: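 Percent inhibition came from fluorescence of FITC-tagged cleavage product, separated by filtration from uncleaved substrate captured on streptavidin-coated beads. The enzyme (10 μl of 0.1 μM) and compound acted on a biotin/FITC dual-labelled peptide for one hour at room temperature in the dark. The reaction ran in 0.1 M sodium acetate, pH 5.5, with 1.0 M NaCl and 0.05% NP-40.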

HIV-1 protease [2] = molecular target: T1, HIV-1 protease; test: biochemical
Procedure, shortened: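 Biotinylated, FITC-labelled peptide substrate cleaved in 0.1 M sodium acetate pH 5.5, 1.0 M NaCl, 0.05% NP-40, room temperature. Filtered labelled product read by fluorescence; nonlinear least-squares fit.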

[3] = Table I, read-out: HIV Protease FITC Assay Ki
[4] = Table II, enzyme HIV-1, DOSE 0.123 (unit not given)
[5] = Table II, enzyme HIV-1, DOSE 0.370 (unit not given)
[6] = Table II, enzyme HIV-1, DOSE 1.100 (unit not given)
[7] = Table II, enzyme HIV-1, DOSE 3.300 (unit not given)
[8] = Table II, enzyme HIV-1, DOSE 10.000 (unit not given)
[9] = Table II, enzyme HIV-1, DOSE 30.000 (unit not given)
[10] = Table II, enzyme HIV-1, read-out: FITC KI

Structure (SMILES)	inhibition at 0.123 µM (HIV-1 protease [1]; Table I, Dose 0.123 μM) [%]	inhibition at 0.37 µM (HIV-1 protease [1]; Table I, Dose 0.370 μM) [%]	inhibition at 1.1 µM (HIV-1 protease [1]; Table I, Dose 1.100 μM) [%]	inhibition at 3.3 µM (HIV-1 protease [1]; Table I, Dose 3.300 μM) [%]	inhibition at 10 µM (HIV-1 protease [1]; Table I, Dose 10.000 μM) [%]	inhibition at 30 µM (HIV-1 protease [1]; Table I, Dose 30.000 μM) [%]	Ki (HIV-1 protease [2]; [3])	further results
CC(C)CC(c1cccc(NS(=O)(=O)c2cn(C)cn2)c1)c1c(O)c2c(oc1=O)CCCCCC2 (single isomer, unassigned) [Example 9, (R or S)-N-[3-1-(5,6,7,8,9,10-Hexahydro-4-hydroxy-2-oxo-2H-cycloocta[b]pyran-3-yl)-3-methylbutyl]phenyl]-1-methyl-1H-imidazole-4-sulfonamide]	99.1	104	105	105	107	108	0.42 nM	
CCC(CCNC(=O)CCCCCCC(=O)N(C)CCS(=O)(=O)O)c1cc(O)c(C(c2cccc(NS(=O)(=O)c3cn(C)cn3)c2)C2CC2)c(=O)o1 (stereo not shown) [Example 110, 2-[[8-[[3-[3-[Cyclopropyl[3-[[(1-methyl-1H-imidazol-4-yl)sulfonyl]amino]phenyl]methyl]-4-hydroxy-2-oxo-2H-pyran-6-yl]pentyl]amino]-1,8-dioxooctyl]methylamino]-ethane sulfonic acid, monosodium salt]	77.9	82.7	95.1	99.1	99.2	101	3.26 nM and 3.63 nM	
CCC(C1=C(O)C2CCCCCC2OC1=O)c1cccc(NS(=O)(=O)c2ccc(C#N)cn2)c1 (stereo not shown) [Example 372, 5-Cyano-N-[3-[1-(2,4a,5,6,7,8,9,9a-octahydro-4-hydroxy-2-oxocyclohepta[b]pyran-3-yl)propyl]phenyl]-2-pyridinesulfonamide]								PROTEASE % INHIB. (HIV-1 protease [1]; [4]): 43.52%; PROTEASE % INHIB. (HIV-1 protease [1]; [5]): 86.68%; PROTEASE % INHIB. (HIV-1 protease [1]; [6]): 101.52%; PROTEASE % INHIB. (HIV-1 protease [1]; [7]): 99.56%; PROTEASE % INHIB. (HIV-1 protease [1]; [8]): 97.81%; PROTEASE % INHIB. (HIV-1 protease [1]; [9]): 106.18%; Ki (HIV-1 protease [2]; [10]): 4 nM
CCC(Cc1ccccc1)c1cc(O)c(C(c2cccc(NS(=O)(=O)c3cn(C)cn3)c2)C2CC2)c(=O)o1 (stereo not shown) [Example 136, N-(3-{Cyclopropyl-[6-(1-ethylphenethyl)-4-hydroxy-2-oxo-2H-pyran-3-yl]-methyl}-phenyl)-1-methyl-1H-imidazole-4-sulfonamide]	71.7	85.7	99	101	102	102	1.32 nM	
CCC(C1=C(O)CC(CCc2ccc(F)cc2)(CCc2ccc(F)cc2)OC1=O)c1cccc(NS(=O)(=O)c2ccc(C(N)=O)cn2)c1 (stereo not shown) [Example 333, N-[3-{1-(4-Hydroxy-5,6-dihydro-2-oxo-6,6-bis(2-(4-fluorophenyl)ethyl)-2H-pyran-3-yl)propyl}phenyl]-5-carbamoylpyridine-2-sulfonamide]								PROTEASE % INHIB. (HIV-1 protease [1]; [4]): 66.73%; PROTEASE % INHIB. (HIV-1 protease [1]; [5]): 85.07%; PROTEASE % INHIB. (HIV-1 protease [1]; [6]): 85.12%; PROTEASE % INHIB. (HIV-1 protease [1]; [7]): 93.69%; PROTEASE % INHIB. (HIV-1 protease [1]; [8]): 89.38%; PROTEASE % INHIB. (HIV-1 protease [1]; [9]): 77.91%; Ki (HIV-1 protease [2]; [10]): 7.7 nM
CCCC1(CCc2ccccc2)CC(O)=C(C(c2cccc(NS(=O)(=O)c3ccc(C#N)cn3)c2)C(C)(C)C)C(=O)O1 (stereo not shown) [Example 251, 5-Cyano-N-[3-(1-[5,6-dihydro-4-hydoxy-2-oxo-6-(2-phenethyl)-6-propyl-2H-pyran-3-yl]-2,2-dimethylpropyl)phenyl]-2-pyridinesulfonamide]								inhibition at 0.123 µM (HIV-1 protease [1]): 70.8%; inhibition at 0.37 µM (HIV-1 protease [1]): 90.6%; inhibition at 1.1 µM (HIV-1 protease [1]): 97.7%; inhibition at 3.3 µM (HIV-1 protease [1]): 94.5%; inhibition at 10 µM (HIV-1 protease [1]): 94.2%; inhibition at 30 µM (HIV-1 protease [1]): 93.2%; Ki (HIV-1 protease [2]; read-out: HIV Protease FITC Assay Ki): 1.9 nM
CCCC1(CCC)CC(O)=C(C(CC)c2cccc(NS(=O)(=O)c3cccc4cccnc34)c2)C(=O)O1 (single isomer, unassigned) [Example 52, (R or S)-N-[3-[1-(4-Hydroxy-2-oxo-6,6-dipropyl-5,6-dihydro-2H-pyran-3-yl)-propyl]-phenyl]-8-quinolinesulfonamide]		87.3	92.6	97.4	97.2	88.9	1.4 nM	PROTEASE % INHIB. (HIV-1 protease [1]; Table I, Dose 0.123 μM): 85.08%
COCCOCCOCCOc1ccc2c(O)c(C(c3cccc(NS(=O)(=O)c4cccc5cccnc45)c3)C3CC3)c(=O)oc2c1 (stereo not shown) [Example 153, N-(3-{Cyclopropyl-[7-(2-(2-(2-methoxyethoxy)-ethoxy)ethoxy)-4-hydroxycoumarin-3-yl]-methyl}-phenyl)-8-quinolinesulfonamide]	81.3	91.1	100	104	103	101	1.85 nM	
CC(C)(C)C(C1=C(O)CC(CCC2CC2)(CCC2CC2)OC1=O)c1cccc(NS(=O)(=O)c2ccc(C#N)cn2)c1 (stereo not shown) [Example 265, N-[3-(1-[6,6-Bis-(2-cyclopropyl-ethyl)-5,6-dihydro-4-hydroxy-2-oxo-2H-pyran-3-yl]-2,2-dimethyl-propyl)phenyl]-5-cyano-2-pyridinesulfonamide]	33.2	56.3	57.8	63.7	80.3	85.6	1 nM	
O=C(O)c1ccc(S(=O)(=O)Cc2cccc(C(c3c(O)c4c(oc3=O)CCCCCC4)C3CC3)c2)cc1 (stereo not shown) [Example 14, 3-[cyclopropyl[3-[(4-carboxyphenylsulfonyl)methyl]phenyl]methyl]-5,6,7,8,9,10-hexahydro-4-hydroxy-2H-cycloocta[b]pyran-2-one]	65.7	88	96.8	96.6	102	106	6.88 nM	
O=c1oc2c(c(O)c1C(c1cccc(CS(=O)(=O)c3ccc(F)cc3)c1)C1CC1)CCCCCC2 (stereo not shown) [Example 12, 3-[cyclopropyl[3-[(4-fluorophenylsulfonyl)methyl]phenyl]methyl]-5,6,7,8,9,10-hexahydro-4-hydroxy-2H-cycloocta[b]pyran-2-one]	75.7	87.2	91.8	91.1	94.7	95.7	2.15 nM	
CCCC1(CCc2ccc(F)cc2)CC(O)=C(C(c2cccc(NS(=O)(=O)c3ccc(C#N)cc3)c2)C(C)(C)C)C(=O)O1 (stereo not shown) [Example 328, N-[3-{1-(4-Hydroxy-5,6-dihydro-2-oxo-6-(2-(4-fluorophenyl)ethyl)-6-propyl-2H-pyran-3-yl)-2,2-dimethylpropyl}phenyl]-4-cyanobenzenesulfonamide]								PROTEASE % INHIB. (HIV-1 protease [1]; [4]): 27.81%; PROTEASE % INHIB. (HIV-1 protease [1]; [5]): 79.47%; PROTEASE % INHIB. (HIV-1 protease [1]; [6]): 95.45%; PROTEASE % INHIB. (HIV-1 protease [1]; [7]): 96.77%; PROTEASE % INHIB. (HIV-1 protease [1]; [8]): 96.78%; PROTEASE % INHIB. (HIV-1 protease [1]; [9]): 92.17%; Ki (HIV-1 protease [2]; [10]): 22 nM
CC[C@H](Cc1ccccc1)c1cc(O)c(C(c2cccc(NS(=O)(=O)c3cn(C)cn3)c2)C2CC2)c(=O)o1 (single isomer, unassigned) [Example 138, N-(3-(R or S)-[Cyclopropyl-[6-(l-(R)-ethylphenethyl)-4-hydroxy-2-oxo-2H-pyran-3-yl]-methyl}-phenyl)-1-methyl-1H-imidazole-4-sulfonamide]	101	95.5	101	99.6	94.8	105	0.73 nM and 1.4 nM	
CCC(CCOCCOC)c1cc(O)c(C(c2cccc(NS(=O)(=O)c3ccc(C#N)cc3)c2)C2CC2)c(=O)o1 (stereo not shown) [Example 106, 4-Cyano-N-(3-{cyclopropyl-[6-(1-ethyl-3-{2-methoxy-ethoxy}-propyl)-4-hydroxy-2-oxo-2H-pyran-3-yl]-methyl}-phenyl)-benzenesulfonamide]	60.9	86.6	93.7	98.9	99	106	3.29 nM	
CCCC1(CCC)CC(O)=C(C(CC)c2cccc(NS(=O)(=O)c3cccc4cccnc34)c2)C(=O)O1 (stereo not shown) [Example 43, N-[3-[1-(4-hydroxy-2-oxo-6,6-dipropyl-5,6-dihydro-2H-pyran-3-yl)-propyl]-phenyl]-8-quinolinesulfonamide]	85.6	99	95.7	96.7	102	85.6	3.65 nM	
COc1ccc2c(O)c(C(c3cccc(NS(=O)(=O)c4cn(C)cn4)c3)C3CC3)c(=O)oc2c1 (stereo not shown) [Example 152, N-(3-{Cyclopropyl-[7-methoxy-4-hydroxycoumarin-3-yl]-methyl}-phenyl)-1-methyl-1H-imidazole-4-sulfonamide]								inhibition at 0.123 µM (HIV-1 protease [1]): 11.5%; inhibition at 0.37 µM (HIV-1 protease [1]): 80.2%; inhibition at 1.1 µM (HIV-1 protease [1]): 95.8%; inhibition at 3.3 µM (HIV-1 protease [1]): 94.4%; inhibition at 10 µM (HIV-1 protease [1]): 95.5%; inhibition at 30 µM (HIV-1 protease [1]): 96.5%; Ki (HIV-1 protease [2]; HIV Protease FITC Assay Ki): 0.71 nM
